One compound from patent publication US20130115294A1, “STABLE LIQUID OILY READY-TO-USE FORMULATIONS, PREPARATION THEREOF AND USE THEREOF” (CTS CHEMICAL INDUSTRIES LTD., priority 2010, published 2013) can be followed below.

The structures appear in SMILES notation. Where a name gives a salt, the structure may show the parent alone. Read-outs that look alike come from different tables or passages of the source.

The data set is described as follows: Caco-2 cell monolayer uptake and apparent permeability. As to conditions: human. The data set is classed as in vitro ADME. Background: Caco-2 cells form a polarised layer with tight junctions and transporters.

Procedure: Caco-2 monolayer were grown in Dulbecco's modified Eagle's medium supplemented with 10% fetal bovine serum, 1% L-glutamine, 1% nonessential amino acids, and 5% antibiotic-antimycotic solution at 37° C. in humidified air, 5% CO2 atmosphere. The culture medium was replaced every 96 h. The uptake studies were conducted with monolayers (passages 73 to 79) in wells of 2 cm^2 which reach confluency following 4 days of incubation in culture. Prior to the experiments, the culture medium was replaced with transport medium and cell monolayers were subsequently equilibrated for 30 min at 37° C. before the uptake study. The transport medium was Hanks buffer composed of 136.89 mM NaCl, 5.36 mM KCl, 0.34 mM Na2HPO4, 0.44 mM KH2PO4, 0.41 mM MgSO4 7H2O, 19.45 mM glucose, 1.26 mM CaCl2, 0.49 mM MgCl2 6H2O, 4.17 mM NaHCO3, 10 mM HEPES, and the pH was adjusted to 7.4.
The powder (10 mg equivalent to 1 mg enalapril maleate) was weighted dispersed and fully dissolved in 1 ml Hanks buffer. 25 μl from this solution were placed in Caco-2 wells with 975 μl of Hanks buffer resulting in a final concentration of 25 μg/ml of enalapril maleate.
A 100 μl of parent CTS oil formulation was withdrawn and diluted with soybean oil USP to give 1 mg/ml of enalapril maleate.
A 25 μl of the diluted oil solution was placed into the transport medium to give a 25 μg/ml of enalapril maleate in each well (dilution 1:40).
All the uptake experiments were performed over 3 hours at 37° C. Following incubation the transport medium was collected in clean tubes stored at −80° C. up to the quantitative determination of the enalapril levels by HPLC (The HPLC method was provided by CTS). Regarding the cell monolayer in the wells, 1 ml of 0.2% SDS was added to each well to elicit lysis of the cell monolayer. The lysate were collected in a clean tube and enalapril was determined by CTS HPLC technique. […]

With `CCOC(=O)[C@H](CCc1ccccc1)N[C@@H](C)C(=O)N1CCC[C@H]1C(=O)O` [ENL-solution, enalapril maleate], the Papp at 3 h, 25 μg/ml by setting is: (Caco-2, pH 7.4, 25 μg/ml enalapril maleate, no intestinal juice, read-out: apparent permeability (Papp)) 25.1 ± 0.5 ×10⁻⁶ cm/s; (Caco-2, pH 7.4, printed values are Papp multiplied by 10^6, 25 μg/ml enalapril maleate, 37° C., Hanks buffer pH 7.4, + 0.1% intestinal juice (IJ), read-out: Papp × 10^6 (cm/s) ± s.d) 25.2 ± 4.81 ×10⁻⁶ cm/s; (Caco-2, pH 7.4, printed values are Papp multiplied by 10^6, 25 μg/ml enalapril maleate, 37° C., Hanks buffer pH 7.4, no intestinal juice, read-out: Papp × 10^6 (cm/s) ± s.d) 25.1 ± 2.93 ×10⁻⁶ cm/s.
